Assays:
HCV replicon = assay: microbe, parasite or virus in culture; assay type: cell-based, hepatitis C virus; conditions: Hepatitis C virus, read-out: Replicon IC50 μM

CCn1c(-c2ccc(N)cc2)c(C#N)c2ccc(OC)cc21 [Compound 55, 2-(4-aminophenyl)-1-ethyl-6-methoxy-1H-indole-3-carbonitrile]
IC50 (HCV replicon): > 2 µM | melting point: 183 to 185 °C

CCn1cc(-c2ccno2)c2ccc(OC)cc21 [Compound 58, 1-ethyl-3-isoxazol-5-yl-6-methoxy-1H-indole]
IC50 (HCV replicon): > 2 µM | melting point: 76 to 79 °C

CCn1cc(-c2ccn[nH]2)c2ccc(OC)cc21 [Compound 59, 1-ethyl-6-methoxy-3-(2H-pyrazol-3-yl)-1H-indole]
IC50 (HCV replicon): > 2 µM | melting point: 81 to 85 °C

CCn1c(C#Cc2ccc(F)cc2)c(C#N)c2ccc(OC)cc21 [Compound 67, 1-ethyl-2-(4-fluorophenylethynyl)-6-methoxy-1H-indole-3-carbonitrile]
IC50 (HCV replicon): 0.5 to 2 µM | melting point: 132 to 136 °C

CCn1cc(-c2cnco2)c2ccc(C(=O)OC)cc21 [Compound 72, methyl 1-ethyl-3-oxazol-5-yl-1H-indole-6-carboxylate]
IC50 (HCV replicon): > 2 µM | melting point: 144 to 149 °C

CCn1cc(-c2ncco2)c2ccc(C(=O)OC)cc21 [Compound 75, methyl 1-ethyl-3-oxazol-2-yl-1H-indole-6-carboxylate]
IC50 (HCV replicon): > 2 µM | melting point: 118 to 123 °C

CCn1c(-c2ccc(N3CCCS3(=O)=O)cc2)c(C#N)c2ccc(OC)cc21 [Compound 84, 2-[4-(1,1-dioxo-1λ^6-isothiazolidin-2-yl)phenyl]-1-ethyl-6-methoxy-1H-indole-3-carbonitrile]
IC50 (HCV replicon): < 0.5 µM | melting point: 232 to 237 °C

CCCOC(=O)Nc1ccc2c(C#N)cn(-c3ccc(OC)cc3)c2c1 [Compound 97, [3-Cyano-1-(4-methoxyphenyl)-1H-indol-6-yl]-carbamic acid propyl ester]
IC50 (HCV replicon): > 2 µM | melting point: 164 to 167 °C

CCn1c(COc2ccccc2)c(C#N)c2ccc(OC)cc21 [Compound 99, 1-ethyl-6-methoxy-2-phenoxymethyl-1H-indole-3-carbonitrile]
IC50 (HCV replicon): > 2 µM | melting point: 123.4 to 123.8 °C

CCn1cc(-c2cc(-c3ccc(OC)cc3)on2)c2ccc(OC)cc21 [Compound 116, 1-ethyl-6-methoxy-3-[5-(4-methoxyphenyl)-isoxazol-3-yl]-1H-indole]
IC50 (HCV replicon): > 2 µM | melting point: 116 to 118 °C

CCOC(=O)Nc1ccc(-c2c(C#N)c3ccc(OC)cc3n2CC)cc1 [Compound 121, [4-(3-cyano-1-ethyl-6-methoxy-1H-indol-2-yl)-phenyl]-carbamic acid ethyl ester]
IC50 (HCV replicon): 0.5 to 2 µM | melting point: 167 to 169 °C

CCn1c(-c2ccc(NC(C)=O)cc2)c(C#N)c2ccc(OC)cc21 [Compound 128, N-[4-(3-Cyano-1-ethyl-6-methoxy-1H-indol-2-yl)-phenyl]-acetamide]
IC50 (HCV replicon): > 2 µM | melting point: 218 to 220 °C

CCn1c(-c2ccc(NS(C)(=O)=O)cc2)c(C#N)c2ccc(OC)cc21 [Compound 129, N-[4-(3-Cyano-1-ethyl-6-methoxy-1H-indol-2-yl)-phenyl]-methanesulfonamide]
IC50 (HCV replicon): 0.5 to 2 µM | melting point: 188 to 190 °C

CCn1c(C#Cc2ccc(NS(C)(=O)=O)cc2)c(C#N)c2ccc(OC)cc21 [Compound 130, N-[4-(3-cyano-1-ethyl-6-methoxy-1H-indol-2-ylethynyl)-phenyl]-methanesulfonamide]
IC50 (HCV replicon): < 0.5 µM | melting point: 227 to 233 °C

CCn1c(C#Cc2ccc(NC(C)=O)cc2)c(C#N)c2ccc(OC)cc21 [Compound 138, N-[4-(3-cyano-1-ethyl-6-methoxy-1H-indol-2-ylethynyl)-phenyl]-acetamide]
IC50 (HCV replicon): 0.5 to 2 µM | melting point: 235 to 239 °C

CCn1cc(C#N)c2cc(-c3ccsc3)ccc21 [Compound 141, 1-ethyl-5-thiophen-3-yl-1H-indole-3-carbonitrile]
IC50 (HCV replicon): > 2 µM | melting point: 145 to 146 °C

CCn1c(C#Cc2ccc(NC(=O)NCCCl)cc2)c(C#N)c2ccc(OC)cc21 [Compound 156, 1-(2-chloroethyl)-3-[4-(3-cyano-1-ethyl-6-methoxy-1H-indol-2-ylethynyl)-phenyl]urea]
IC50 (HCV replicon): 0.5 to 2 µM | melting point: 205 to 209 °C

CCn1c(C#Cc2ccc(N(C)S(=O)(=O)CC)cc2)c(C#N)c2ccc(OC)cc21 [Compound 157]
IC50 (HCV replicon): 0.5 to 2 µM | melting point: 149 to 153 °C

CCn1c(C#Cc2ccc(N3CCNC3=O)cc2)c(C#N)c2ccc(OC)cc21 [Compound 166, 1-ethyl-6-methoxy-2-[4-(2-oxo-imidazolidin-1-yl)-phenylethynyl]-1H-indole-3-carbonitrile]
IC50 (HCV replicon): < 0.5 µM | melting point: 236 to 240 °C

CCn1c(-c2ccc(N(C)S(C)(=O)=O)cc2)c(C#N)c2ccc(OC)cc21 [Compound 180, N-[4-(3-cyano-1-ethyl-6-methoxy-1H-indol-2-yl)-phenyl]-N-methyl methanesulfonamide]
IC50 (HCV replicon): 0.5 to 2 µM | melting point: 170 to 171 °C

CCn1c(-c2ccc(NS(C)(=O)=O)cc2)c(C#N)c2ccc(O)cc21 [Compound 189, N-[4-(3-cyano-1-ethyl-6-hydroxy-1H-indol-2-yl)-phenyl]-methanesulfonamide]
IC50 (HCV replicon): > 2 µM | melting point: 252 to 253 °C

CCn1c(C#Cc2ccc(NC(=O)C3CC3)cc2)c(C#N)c2ccc(O)cc21 [Compound 194, cyclopropanecarboxylic acid [4-(3-cyano-1-ethyl-6-hydroxy-1H-indol-2-ylethynyl)-phenyl]amide]
IC50 (HCV replicon): 0.5 to 2 µM | melting point: 278 to 284 °C

CCNC(=O)Nc1cccc(C#Cc2c(C#N)c3ccc(OC)cc3n2CC)c1 [Compound 220, 1-[3-(3-cyano-1-ethyl-6-methoxy-1H-indol-2-ylethynyl)phenyl]-3-ethyl urea]
IC50 (HCV replicon): 0.5 to 2 µM | melting point: 219 to 223 °C

COC(=O)c1cccc(-c2noc(-c3[nH]c4cc(OC)ccc4c3C#N)n2)c1 [Compound 226, methyl 3-[5-(3-cyano-6-methoxy-1H-indol-2-yl)-[1,2,4]oxadiazol-3-yl]benzoate]
IC50 (HCV replicon): > 2 µM | melting point: 294 to 295 °C

CCn1c(C#Cc2ccc(NC=O)cc2)c(C#N)c2ccc(OC)cc21 [Compound 241, N-[4-(3-cyano-1-ethyl-6-methoxy-1H-indol-2-ylethynyl)-phenyl]-formamide]
IC50 (HCV replicon): > 2 µM | melting point: 184 to 188 °C

CCn1c(-c2ccc(C(=O)N3CCOCC3)cc2)c(C#N)c2cc(OC)ccc21 [Compound 245, 1-ethyl-5-methoxy-2-[4-(morpholine-4-carbonyl)-phenyl]-1H-indole-3-carbonitrile]
IC50 (HCV replicon): > 2 µM | melting point: 192 to 195 °C

CCn1c(-c2ccc(OCCOC)cc2)c(C#N)c2ccc(OC)cc21 [Compound 248, 1-ethyl-6-methoxy-2-[4-(2-methoxyethoxy)-phenyl]-1H-indole-3-carbonitrile]
IC50 (HCV replicon): 0.5 to 2 µM | melting point: 117 to 121 °C

CCn1c(-c2ccc(OCCBr)cc2)c(C#N)c2ccc(OC)cc21 [Compound 253, 2-[4-(2-bromoethoxy)-phenyl]-1-ethyl-6-methoxy-1H-indole-3-carbonitrile]
IC50 (HCV replicon): 0.5 to 2 µM | melting point: 121 to 125 °C

CCn1c(-c2ccc(OCCN3CCOCC3)cc2)c(C#N)c2ccc(OC)cc21 [Compound 261, 1-ethyl-6-methoxy-2-[4-(2-morpholin-4-yl-ethoxy)-phenyl]-1H-indole-3-carbonitrile]
IC50 (HCV replicon): 0.5 to 2 µM | melting point: 138 to 143 °C

CCn1c(-c2ccc(S(C)(=O)=O)cc2)c(C#N)c2ccc(OC)cc21 [Compound 265, 1-ethyl-2-(4-methanesulfonylphenyl)-6-methoxy-1H-indole-3-carbonitrile]
IC50 (HCV replicon): > 2 µM | melting point: 204 to 206 °C

CCn1c(-c2ccc(OCCN=[N+]=[N-])cc2)c(C#N)c2ccc(OC)cc21 [Compound 266, 2-[4-(2-azidoethoxy)phenyl]-1-ethyl-6-methoxy-1H-indole-3-carbonitrile]
IC50 (HCV replicon): 0.5 to 2 µM | melting point: 96 to 99 °C

CCn1c(-c2ccc(OCCN)cc2)c(C#N)c2ccc(OC)cc21 [Compound 267, 2-[4-(2-aminoethoxy)phenyl]-1-ethyl-6-methoxy-1H-indole-3-carbonitrile]
IC50 (HCV replicon): > 2 µM | melting point: 106 to 112 °C

CCn1c(-c2ccc(OCCNS(C)(=O)=O)cc2)c(C#N)c2ccc(OC)cc21 [Compound 268, N-{2-[4-(3-cyano-1-ethyl-6-methoxy-1H-indol-2-yl)-phenoxy]-ethyl}methanesulfonamide]
IC50 (HCV replicon): 0.5 to 2 µM | melting point: 137 to 143 °C

CCn1c(-c2ccc(OCCNC(C)=O)cc2)c(C#N)c2ccc(OC)cc21 [Compound 274, N-{2-[4-(3-cyano-1-ethyl-6-methoxy-1H-indol-2-yl)-phenoxy]-ethyl}acetamide]
IC50 (HCV replicon): > 2 µM | melting point: 166 to 172 °C

CCNC(=O)NCCOc1ccc(-c2c(C#N)c3ccc(OC)cc3n2CC)cc1 [Compound 279, 1-{2-[4-(3-cyano-1-ethyl-6-methoxy-1H-indol-2-yl)-phenoxy]ethyl}-3-ethyl-urea]
IC50 (HCV replicon): > 2 µM | melting point: 197 to 202 °C

CCn1c(-c2ccc(OCCNC=O)cc2)c(C#N)c2ccc(OC)cc21 [Compound 280, N-{2-[4-(3-cyano-1-ethyl-6-methoxy-1H-indol-2-yl)-phenoxy]ethyl}formamide]
IC50 (HCV replicon): > 2 µM | melting point: 89 to 95 °C

CCn1c(-c2ccc(OCC(=O)N3CC[C@H](O)C3)cc2)c(C#N)c2ccc(OC)cc21 [Compound 285, 1-ethyl-2-{4-[2-(3-hydroxypyrrolidin-1-yl)-2-oxo-ethoxy]phenyl}-6-methoxy-1H-indole-3-carbonitrile]
IC50 (HCV replicon): > 2 µM | melting point: 185 to 190 °C

CCn1c(-c2cccc(O)c2)c(C#N)c2ccc(OC)cc21 [Compound 288, 1-ethyl-2-(3-hydroxyphenyl)-6-methoxy-1H-indole-3-carbonitrile]
IC50 (HCV replicon): > 2 µM | melting point: 194 to 199 °C

CCn1c(-c2ccc(O)c(N)c2)c(C#N)c2ccc(OC)cc21 [Compound 322, 2-(3-amino-4-hydroxyphenyl)-1-ethyl-6-methoxy-1H-indole-3-carbonitrile]
IC50 (HCV replicon): > 2 µM | melting point: 223 to 230 °C

Reference: patent US7868037B2 (PTC Therapeutics, Inc., priority 2004, dated 2011)
